Results reported in patent publication US10005771B2, “Bicyclic derivatives having β2 adrenergic agonist and M3 muscarinic antagonist activities” (Almirall, S.A., priority 2014, dated 2018).

Legend:
[1] = target: T1, human muscarinic M3 receptors (Homo sapiens, UniProt P20309); experiment: Human muscarinic M3 receptors binding assay ([3H]-NMS, CHO-K1 membranes); conditions: membranes from CHO-K1 cells, [3H]-NMS radioligand, two hours incubation
T1 construct: purchased Perkin Elmer; host or cells: CHO-K1 cells
T1 sequence (P20309 whole entry): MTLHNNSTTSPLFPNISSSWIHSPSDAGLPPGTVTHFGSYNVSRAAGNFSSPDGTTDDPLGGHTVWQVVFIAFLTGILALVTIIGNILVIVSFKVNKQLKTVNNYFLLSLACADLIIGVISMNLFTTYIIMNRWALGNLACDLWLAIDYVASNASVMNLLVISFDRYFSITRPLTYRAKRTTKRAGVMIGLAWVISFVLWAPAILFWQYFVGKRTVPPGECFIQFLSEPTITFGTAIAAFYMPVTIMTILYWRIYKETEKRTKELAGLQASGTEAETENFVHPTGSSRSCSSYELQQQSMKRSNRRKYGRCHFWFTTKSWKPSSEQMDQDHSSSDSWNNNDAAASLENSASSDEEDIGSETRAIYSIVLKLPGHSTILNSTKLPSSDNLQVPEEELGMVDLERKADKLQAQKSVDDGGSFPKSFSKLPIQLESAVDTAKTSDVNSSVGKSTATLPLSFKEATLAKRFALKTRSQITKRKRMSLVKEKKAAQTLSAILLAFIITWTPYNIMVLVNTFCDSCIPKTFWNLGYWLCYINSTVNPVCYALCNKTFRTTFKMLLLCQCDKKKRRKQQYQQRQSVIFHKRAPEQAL
Protocol: Test 2: Human Muscarinic M3 Receptors Binding Assays
The study of binding to human muscarinic M3 receptors was performed using commercial membranes (Perkin Elmer) prepared from CHO-K1 cells.
Radioligand binding experiments were conducted in 96 polypropylene well plates in a total volume of 200 μl. All reagents were dissolved in assay binding buffer (PBS with calcium and magnesium, SIGMA), except compounds that were dissolved in DMSO 100%. Non-specific binding (NSB) was measured in the presence of 1 μM atropine. [3H]-NM, used as the radioligand was incubated with membranes that express human muscarinic M3 at concentration of 4.9 μg/well.
After an incubation period of two hours with gentle shaking, 150 μl of the reaction mix were transferred to 96 GF/C filter plates (Millipore), previously treated with wash buffer (Tris 50 mM; NaCl 100 mM; pH: 7.4), containing 0.05% PEI (Sigma) during one hour. Bound and free [3H]-NMS were separated by rapid vacuum filtration in a manifold from Millipore and washed four times with ice cold wash buffer. After drying 30 min, 30 μl of OPTIPHASE Supermix were added to each well and radioactivity quantified using a Microbeta microplate scintillation counter.
The affinity of each test compound to the receptor was determined by using ten different concentrations ran in duplicate. IC50s were calculated using Activity Base software from IDBS and the four parameters-log equation.

[2] = target: T2, human adrenergic β2 receptor (Homo sapiens, UniProt P07550); experiment: Human adrenergic β2 receptor binding assay (3H-CGP12177, Sf9 membranes); conditions: membranes from Sf9 cells, 0.6 nM 3H-CGP12177, 60 minutes at room temperature
T2 construct: purchased Perkin Elmer; host or cells: Sf9 cells
Protocol: Test 1: Human Adrenergic β1 and β2 Receptor Binding Assays
The study of binding to human adrenergic beta1 and beta2 receptors was performed using commercial membranes prepared from Sf9 cells where they are overexpressed (Perkin Elmer). The membrane suspensions (16 μg/well for beta1 and 5 μg/well for beta2) in assay buffer (75 mM Tris/HCl with 12.5 mM MgCl2 and 2 mM EDTA pH=7.4) were incubated with 0.14 or 0.6 nM of 3H-CGP12177 (Amersham) for beta 1 and beta 2 receptors respectively in a final volume of 250 μl, in GFC Multiscreen 96 well plates (Millipore) previously treated with assay buffer containing 0.3% PEI (Sigma). Non specific binding was measured in the presence of 1 μM propanolol. Incubation was maintained for 60 minutes at room temperature and with gentle shaking. The binding reactions were terminated by filtration and washing with 2.5 volumes of Tris/HCl 50 mM pH=7.4. The affinity of each test compound to the receptor was determined by using ten different concentrations ran in duplicate. IC50s were calculated using Activity Base software from IDBS and the four parameters-log equation.

**Q.** For `COc1cc(NC(=O)CCCc2ccc(C3(C(=O)O[C@H]4CN5CCC4CC5)CCCCC3)cc2)c(Cl)cc1CNC[C@H](O)c1ccc(O)c2[nH]c(=O)ccc12` [Example 31, (3R)-1-azabicyclo[2.2.2]oct-3-yl 1-[4-(4-{[2-chloro-4-({[(2R)-2-hydroxy-2-(8-hydroxy-2-oxo-1,2-dihydroquinolin-5-yl)ethyl]amino}methyl)-5-methoxyphenyl]amino}-4-oxobutyl)phenyl]cyclohexanecarboxylate], which IC50 [1] is on record?
**A.** The IC50 was 0.41 nM.

**Q.** And the IC50 [2]?
**A.** The IC50 was 4 nM.

**Q.** Which results are given for `COc1cc(NC(=O)CCCc2cccc(C3(C(=O)OCC4CCNCC4)CCCCC3)c2)c(Cl)cc1CNC[C@H](O)c1ccc(O)c2[nH]c(=O)ccc12` [Example 28, piperidin-4-ylmethyl 1-[3-(4-{[2-chloro-4-({[(2R)-2-hydroxy-2-(8-hydroxy-2-oxo-1,2-dihydroquinolin-5-yl)ethyl]amino}methyl)-5-methoxyphenyl]amino}-4-oxobutyl)phenyl]cyclohexanecarboxylate]?
**A.** IC50 [1]: 0.36 nM; IC50 [2]: 2.2 nM

**Q.** With `O=C(NCCCCc1cccc(C2(C(=O)O[C@H]3CN4CCC3CC4)CCCCC2)c1)c1ccc(CNC[C@H](O)c2ccc(O)c3[nH]c(=O)ccc23)nc1` [Example 21, (3R)-1-azabicyclo[2.2.2]oct-3-yl 1-{3-[4-({[6-({[(2R)-2-hydroxy-2-(8-hydroxy-2-oxo-1,2-dihydroquinolin-5-yl)ethyl]amino}methyl)pyridin-3-yl]carbonyl}amino)butyl]phenyl}cyclohexanecarboxylate] as the molecule, how does the IC50 [1] read?
**A.** Its IC50 is 0.6 nM.

**Q.** And the IC50 [2]?
**A.** The IC50 was 34 nM.

**Q.** `COc1cc(OCC(=O)N(C)CCCc2cccc(C3(C(=O)O[C@H]4CN5CCC4CC5)CCCCC3)c2)c(Cl)cc1CNC[C@H](O)c1ccc(O)c2[nH]c(=O)ccc12` [Example 4, (3R)-1-azabicyclo[2.2.2]oct-3-yl 1-(3-{3-[{[2-chloro-4-({[(2R)-2-hydroxy-2-(8-hydroxy-2-oxo-1,2-dihydroquinolin-5-yl)ethyl]amino}methyl)-5-methoxyphenoxy]acetyl}(methyl)amino]propyl}phenyl)cyclohexanecarboxylate] was tested. Which IC50 [1] did it give?
**A.** Its IC50 is 0.74 nM.

**Q.** And the IC50 [2]?
**A.** The IC50 was 6.6 nM.

**Q.** With `COc1cc(C(=O)OCCCCc2cccc(C3(C(=O)O[C@H]4CN5CCC4CC5)CCCCC3)c2)c(Cl)cc1CNC[C@H](O)c1ccc(O)c2[nH]c(=O)ccc12` [Example 22, 4-[3-(1-{[(3R)-1-azabicyclo[2.2.2]oct-3-yloxy]carbonyl}cyclohexyl)phenyl]butyl 2-chloro-4-({[(2R)-2-hydroxy-2-(8-hydroxy-2-oxo-1,2-dihydroquinolin-5-yl)ethyl]amino}methyl)-5-methoxybenzoate] as the molecule, how does the IC50 [1] read?
**A.** Its IC50 is 0.29 nM.

**Q.** What about the IC50 [2] of the same molecule?
**A.** The IC50 was 7.8 nM.

**Q.** Which IC50 [1] does the source give for `COc1cc(C(=O)OCCCc2cccc(C3(C(=O)O[C@H]4CN5CCC4CC5)CCCCC3)c2)c(Cl)cc1CNC[C@H](O)c1ccc(O)c2[nH]c(=O)ccc12` [Example 13, 3-[3-(1-{[(3R)-1-azabicyclo[2.2.2]oct-3-yloxy]carbonyl}cyclohexyl)phenyl]propyl 2-chloro-4-({[(2R)-2-hydroxy-2-(8-hydroxy-2-oxo-1,2-dihydroquinolin-5-yl)ethyl]amino}methyl)-5-methoxybenzoate] here?
**A.** The IC50 was 0.62 nM.

**Q.** What about the IC50 [2] of the same molecule?
**A.** The IC50 was 4.4 nM.

**Q.** What does the source list for `COc1cc(NC(=O)CCCc2cccc(C3(C(=O)OCC4CCN(C)CC4)CCCCC3)c2)c(Cl)cc1CNC[C@H](O)c1ccc(O)c2[nH]c(=O)ccc12` [Example 29, (1-methylpiperidin-4-yl)methyl 1-[3-(4-{[2-chloro-4-({[(2R)-2-hydroxy-2-(8-hydroxy-2-oxo-1,2-dihydroquinolin-5-yl)ethyl]amino}methyl)-5-methoxyphenyl]amino}-4-oxobutyl)phenyl]cyclohexanecarboxylate]?
**A.** IC50 [1]: 0.57 nM; IC50 [2]: 2.2 nM

**Q.** How did the IC50 [1] turn out when `O=C(O[C@H]1CN2CCC1CC2)C1(c2cccc(CCCCn3nnc4cc(CNC[C@H](O)c5ccc(O)c6[nH]c(=O)ccc56)ccc43)c2)CCCCC1` [Example 5, (3R)-1-azabicyclo[2.2.2]oct-3-yl 1-(3-{4-[5-({[(2R)-2-hydroxy-2-(8-hydroxy-2-oxo-1,2-dihydroquinolin-5-yl)ethyl]amino}methyl)-1H-1,2,3-benzotriazol-1-yl]butyl}phenyl)cyclohexanecarboxylate] was run?
**A.** The IC50 was 1.1 nM.

**Q.** And the IC50 [2]?
**A.** The IC50 was 28 nM.

**Q.** Which results are given for “(3R)-1-azabicyclo[2.2.2]oct-3-yl 1-(3-{4-[{[2-chloro-4-({[2-hydroxy-2-(8-hydroxy-2-oxo-1,2-dihydroquinolin-5-yl)ethyl]amino}methyl)-5-methoxyphenoxy]acetyl}(methyl)amino]butyl}phenyl)cyclohexanecarboxylate [Example 26]”?
**A.** IC50 [1]: 0.53 nM; IC50 [2]: 3 nM
